Measurements as given in patent US20220000878A1, “METHODS OF TREATMENT OF MALIGNANCIES” (Servier Pharmaceuticals, LLC, priority 2015, published 2022).
≈ marks a conversion by molar mass, not a printed value. Entries after “also recorded” stand apart in the source; their conditions may differ.

What was measured:
2-HG = experiment: Phase 1/2 study AG221-C-001: pharmacodynamic response (2-HG plasma levels); format: in vivo, human
Source text: (§1) This is a Phase 1/2, multicenter, open-label, 3-part (Phase 1 dose escalation, Phase 1 Part 1 Expansion, and Phase 2), safety, PK/PD, and clinical activity evaluation of orally administered COMPOUND 1 in subjects with advanced hematologic malignancies that harbor an IDH2 mutation. The study includes a dose escalation phase to determine MTD/MAD and/or RP2D, an expansion phase (Part 1) to further evaluate the safety, tolerability, and clinical activity of COMPOUND 1, and a Phase 2 to assess the clinical efficacy of COMPOUND 1 at the RP2D and to further evaluate safety in subjects with refractory and relapsed AML carrying an IDH2 mutation.
Subjects in the dose escalation phase and Part 1 Expansion also will undergo PK/PD assessments over a 10-hour period on C1D15, C2D1, and C4D1. […] These subjects will have urine collected for PK/PD evaluation at screening; prior to dosing on C1D15, C2D1 and Day 1 of all cycles thereafter; and at the End of Treatment visit. Available bone marrow biopsy samples also will be assessed for 2-HG and α-KG levels.
The starting dose of COMPOUND 1 recommended for evaluation is 100 mg QD. This is based on the safety, PK, pharmacodynamics and clinical activity of COMPOUND 1 observed to date in AG221-C-001. […] Thus a dose of 100 mg should adequately achieve inhibition of 2-HG in subjects with either R140Q or R172K mutation.
Serial blood sampling for determination of concentration-time profiles of COMPOUND 1 and its metabolite (6-(6-(trifluoromethyl)pyridin-2-yl)-N2-(2-(trifluoromethyl)pyridin-4-yl)-1,3,5-triazine-2,4-diamine). Urine sampling for determination of concentrations of COMPOUND 1 and its metabolite (6-(6-(trifluoromethyl)pyridin-2-yl)-N2-(2-(trifluoromethyl)pyridin-4-yl)-1,3,5-triazine-2,4-diamine) (dose escalation and Part 1 expansion subjects only). Blood and bone marrow sampling for determination of 2-HG and α-KG levels.

[1] = tested on: advanced hematologic malignancies with an IDH2 mutation; experiment: Phase 1/2 study AG221-C-001: clinical activity and safety; format: in vivo, human
Source text: as §1
Subjects in the dose escalation phase and Part 1 Expansion will have the extent of their disease assessed, including bone marrow biopsies and/or aspirates and peripheral blood, at screening, on C1D15, C2D1, and C3D1, every 28 days (peripheral blood only) or every 56 days (bone marrow biopsies and/or aspirates and peripheral blood) thereafter while on study drug treatment, independent of dose delays and/or dose interruptions, and/or at any time when progression of disease is suspected. Response to treatment and treatment decisions in all subjects will be determined by the Investigators based on modified International Working Group (IWG) response criteria or other appropriate response criteria for the malignancy under study. […]

[2] = tested on: advanced hematologic malignancies with an IDH2 mutation; experiment: NRAS mutation status and COMPOUND 1 response (next generation sequencing of screening samples, Fisher's exact test); format: in vivo, human
Experimental: A subset of the clinical samples from the trial described in Example 1 were analyzed at screening. Sample types included bone marrow, peripheral blood and mononuclear cells isolated from bone marrow or peripheral blood. DNAs were extracted from these samples and sequenced at Foundation Medicine (see http://foundationone.com/learn.php) using next generation sequencing technique.
A total of 60 genes were identified to carry at least one mutation in the analyzed set (including IDH2 gene). Fisher's exact test was conducted to evaluate the association of somatic mutations with clinical response (responders include CR, CRp, CRi and PR, indicated as +, while none-responders include SD and PD, indicated as—in Table 11). The P-values were adjusted by multiple-test correction.
Mutation status positive (+) means any known mutation(s) in NRAS, and negative (−) means no mutation in NRAS was present.
Positive response status (+) includes CR, mCR and PR and negative response status (−) includes stable disease (SD) and progressive disease (PD).

[3] = tested on: advanced hematologic malignancies with an IDH1 mutation; experiment: NRAS mutation status and COMPOUND 2 response (subset of clinical samples of the Phase 1 trial); format: in vivo, human; details: cancer with mutant allele of IDH1
Source text: This study is a Phase 1, multicenter, open-label, dose-escalation, safety, PK/PD, and clinical activity evaluation of orally administered COMPOUND 2 in subjects with advanced hematologic malignancies that harbor an IDH1 mutation. The study includes a dose escalation phase to determine MTD and/or RP2D followed by expansion arms to further evaluate the safety, tolerability, and clinical activity of COMPOUND 2 in select populations.
A analysis of a subset of the clinical samples from the trial for COMPOUND 2 was conducted. FIG. 14 provides a visual of NRAS mutations according to response categories for COMPOUND 2. FIG. 14 profiles bone marrow at screening visit for patients only where genes were mutated in ≥2. In FIG. 14, genes (y-axis) are shown in decreasing order of frequency, with the exception of IDH2, while patients (x-axis) are grouped by response then by similarity in alterations; only patients from dose escalation phase with an evaluable response included.
A subset of the clinical samples from the trial for COMPOUND 2 described in Example 3 was analyzed for mutations in the samples. FIG. 14 provides a visual of commutations, including NRAS mutations according to response categories for COMPOUND 2. FIG. 14 profiles bone marrow at screening visit for patients only where genes were mutated in ≥2. […]

[4] = solubility in fasted state simulated intestinal fluid (FASSIF); format: physicochemical; details: pH 6.1, fassif, thermodynamic from solid, pH of 6.1 at 4 hours
Experimental: In comparison, amorphous spray-dried dispersions have a solubility of about 0.05 mg/mL to about 0.50 mg/mL in FASSIF at 3 hours.

With CC(C)(O)CNc1nc(Nc2ccnc(C(F)(F)F)c2)nc(-c2cccc(C(F)(F)F)n2)n1 [COMPOUND 1, 2-methyl-1-[(4-[6-(trifluoromethyl)pyridin-2-yl]-6-{[2-(trifluoromethyl)pyridin-4-yl]amino}-1,3,5-triazin-2-yl)amino]propan-2-ol] the “reduction in 2-HG plasma levels” value (2-HG; by Day 1 of Cycle 2) was “sustained reduction”, the “inhibition of 2-HG” value (2-HG; most subjects with R140Q mutation, all doses, plasma) was “up to 98%” and the “dose dependence of exposure and inhibition of 2-HG” value (2-HG; subjects with R172K mutation) was “Increasing dose is associated with higher exposure and inhibition of 2-HG”. The “safety profile, including ≥Grade 3” value ([1]; 100 mg) was “consistent with that of lower doses”, the overall response rate ([1]; 44 subjects treated at 100 mg QD, preliminary efficacy data) was 36.4% and the “association of NRAS mutation status with response” value ([2]; cancer with mutant allele of IDH2) was “associated with responses; also recorded: significantly associated”. The “number of patients, response status − , NRAS mutation +” value ([2]; non-responders (SD, PD), any known NRAS mutation) was 21, the “number of patients, response status − , NRAS mutation −” value ([2]; non-responders (SD, PD), no NRAS mutation) was 40 and the “number of patients, response status + , NRAS mutation +” value ([2]; responders, any known NRAS mutation, N = 118 analyzed) was 2. The “number of patients, response status + , NRAS mutation −” value ([2]; responders, no NRAS mutation, N = 118 analyzed) was 55.
In the case of N#Cc1ccnc(N2C(=O)CC[C@H]2C(=O)N(c2cncc(F)c2)[C@H](C(=O)NC2CC(F)(F)C2)c2ccccc2Cl)c1 [COMPOUND 2, (S)—N—((S)-1-(2-chlorophenyl)-2-((3,3-difluorocyclobutyl)amino)-2-oxoethyl)-1-(4-cyanopyridin-2-yl)-N-(5-fluoropyridin-3-yl)-5-oxopyrrolidine-2-carboxamide], the “association of NRAS mutation status with response” value [3] is reported as “associated with responses”.
With N#Cc1ccnc(N2C(=O)CC[C@H]2C(=O)N(c2cncc(F)c2)[C@H](C(=O)NC2CC(F)(F)C2)c2ccccc2Cl)c1 [Form 2] the solubility at 4 h [4] was ~18 µg/mL (≈ 30.9 µM).
